Tests used:
[1] = system: antibodies in sera from SARS patients (sera 1a, 1b, 2, 6, 37, 62, London, SARS-yellow, SARS-green); format: binding, human; parameters: Binding of serum 6 to linear peptides of protein X1 of SARS-CoV Urbani / Binding of serum 37 to linear peptides of protein X1 of SARS-CoV Urbani / Binding of serum 6 to looped/cyclic peptide (PEPSCAN-ELISA) / Binding of serum 37 to looped/cyclic peptide (PEPSCAN-ELISA) / Binding of serum 37 to looped/cyclic peptides of protein X1 of SARS-CoV Urbani / Binding of serum 6 to linear peptides of protein X2 / Binding of serum 37 to linear peptides of protein X2 / Binding of serum 37 to looped/cyclic peptides of protein X2 of SARS-CoV Urbani / Binding of serum 6 to linear peptides of protein M of SARS-CoV Urbani / Binding of serum 37 to linear peptides of protein M of SARS-CoV Urbani / Binding of serum 6 to looped/cyclic peptides of protein M of SARS-CoV Urbani / Binding of serum 37 to looped/cyclic peptides of protein M of SARS-CoV Urbani / Binding of serum 6 to linear peptides of protein X3 of SARS-CoV Urbani / Binding of serum 37 to linear peptides of protein X3 of SARS-CoV Urbani / Binding of serum 37 to looped/cyclic peptides of protein X3 of SARS-CoV Urbani / Binding of serum 6 to linear peptides of protein X4 of SARS-CoV Urbani / Binding of serum 37 to linear peptides of protein X4 of SARS-CoV Urbani / Binding of serum 37 to looped/cyclic peptides of protein X4 of SARS-CoV Urbani / Binding of serum 6 to linear peptides of protein X5 of SARS-CoV Urbani / Binding of serum 37 to linear peptides of protein X5 of SARS-CoV Urbani / Binding of serum 37 to looped/cyclic peptides of protein X5 of SARS-CoV Urbani / Binding of serum 6 to linear peptides of protein N of SARS-CoV Urbani / Binding of serum 37 to linear peptides of protein N of SARS-CoV Urbani / Binding of serum 6 to linear peptide (PEPSCAN-ELISA) / Binding of serum 1a to looped/cyclic peptides of protein N of SARS-CoV Urbani / Binding of serum 1b to looped/cyclic peptides of protein N of SARS-CoV Urbani / Binding of serum 2 to looped/cyclic peptides of protein N of SARS-CoV Urbani / Binding of serum 6 to looped/cyclic peptides of protein N of SARS-CoV Urbani / Binding of serum 37 to looped/cyclic peptides of protein N of SARS-CoV Urbani / Binding of serum 62 to looped/cyclic peptides of protein N of SARS-CoV Urbani / Binding of serum London to looped/cyclic peptides of protein N of SARS-CoV Urbani / Binding of serum SARS-green to looped/cyclic peptides of protein N of SARS-CoV Urbani: unit not given here
[2] = system: control sera (pooled serum of ten healthy LUMC hospital workers; commercial negative donor pooled serum from the Dutch bloodbank); format: binding, human; parameters: Binding of Control serum LUMC to linear peptides / Binding of Control serum Blood-bank to linear peptides / Binding of Control serum LUMC to looped peptides / Binding of Control Serum Blood-Bank to Looped peptides / Binding of Control serum LUMC to linear peptides of the protein M of SARS-CoV Urbani / Binding of Control serum Blood-bank to linear peptides of the protein M of SARS-CoV Urbani / Binding of Control serum LUMC to looped peptides of the protein M of SARS-CoV Urbani / Binding of Control Serum Blood-Bank to Looped peptides of the protein M of SARS-CoV Urbani: unit not given here
[3] = system: rabbit serum obtained by immunizing a rabbit with the SARS-CoV strain Frankfurt 1; format: binding; parameters: Binding of a rabbit serum to linear peptides / Binding of a rabbit serum to looped peptides / Rabbit serum linear peptides / Rabbit serum looped peptides / Binding of a rabbit serum to linear peptides of protein N of SARS-CoV Urbani (Rabbit serum linear peptides) / Binding of a rabbit serum to looped/cyclic peptides of protein N of SARS-CoV Urbani (Rabbit serum looped peptides): unit not given here

## TPNVTINCQDPAGGA
[1]
  Binding of serum 1a to linear peptides of protein X5 of SARS-CoV Urbani: 0.8
  Binding of serum 1a to looped/cyclic peptides of protein X5 of SARS-CoV Urbani: 0.4
  Binding of serum 1b to linear peptides of protein X5 of SARS-CoV Urbani: 0.4
  Binding of serum 2 to linear peptides of protein X5 of SARS-CoV Urbani: 0.4
  Binding of serum 2 to looped/cyclic peptides of protein X5 of SARS-CoV Urbani: 0.3
  Binding of serum 6 to linear peptides of protein X5 of SARS-CoV Urbani: 0.1
  Binding of serum 6 to looped/cyclic peptides of protein X5 of SARS-CoV Urbani: 0.1
  Binding of serum 37 to linear peptides of protein X5 of SARS-CoV Urbani: 0.8
  Binding of serum 37 to looped/cyclic peptides of protein X5 of SARS-CoV Urbani: 0.4
  Binding of serum 62 to linear peptides of protein X5 of SARS-CoV Urbani: 0.5
  Binding of serum 62 to looped/cyclic peptides of protein X5 of SARS-CoV Urbani: 0.2
  Binding of serum London to linear peptides of protein X5 of SARS-CoV Urbani: 0.6
  Binding of serum London to looped/cyclic peptides of protein X5 of SARS-CoV Urbani: 0.1
  Binding of serum SARS-green to linear peptides of protein X5 of SARS-CoV Urbani: 0.4
  Binding of serum SARS-green to looped/cyclic peptides of protein X5 of SARS-CoV Urbani: 0.2
  Binding of serum SARS-yellow to linear peptides of protein X5 of SARS-CoV Urbani: 0.0
  Binding of serum SARS-yellow to looped/cyclic peptides of protein X5 of SARS-CoV Urbani: 0.2
[2]
  Binding of Control Serum Blood-Bank to Looped peptides: 0.3
  Binding of Control serum Blood-bank to linear peptides: 0.6
  Binding of Control serum LUMC to linear peptides: 0.5
  Binding of Control serum LUMC to looped peptides: 0.2
[3]
  Rabbit serum linear peptides: 0.0
  Rabbit serum looped peptides: 0.1

## ARSVSPKLFIRQEEV
[1]
  Binding of serum 1a to linear peptides of protein X4 of SARS-CoV Urbani: 0.7
  Binding of serum 1a to looped/cyclic peptides of protein X4 of SARS-CoV Urbani: 0.8
  Binding of serum 1b to linear peptides of protein X4 of SARS-CoV Urbani: 0.6
  Binding of serum 1b to looped/cyclic peptides of protein X4 of SARS-CoV Urbani: 0.5
  Binding of serum 2 to linear peptides of protein X4 of SARS-CoV Urbani: 0.5
  Binding of serum 2 to looped/cyclic peptides of protein X4 of SARS-CoV Urbani: 0.7
  Binding of serum 6 to linear peptides of protein X4 of SARS-CoV Urbani: 0.6
  Binding of serum 6 to looped/cyclic peptides of protein X4 of SARS-CoV Urbani: 0.5
  Binding of serum 37 to linear peptides of protein X4 of SARS-CoV Urbani: 0.7
  Binding of serum 37 to looped/cyclic peptides of protein X4 of SARS-CoV Urbani: 0.7
  Binding of serum 62 to linear peptides of protein X4 of SARS-CoV Urbani: 0.7
  Binding of serum 62 to looped/cyclic peptides of protein X4 of SARS-CoV Urbani: 0.6
  Binding of serum London to linear peptides of protein X4 of SARS-CoV Urbani: 0.7
  Binding of serum London to looped/cyclic peptides of protein X4 of SARS-CoV Urbani: 0.3
  Binding of serum SARS-green to linear peptides of protein X4 of SARS-CoV Urbani: 0.6
  Binding of serum SARS-green to looped/cyclic peptides of protein X4 of SARS-CoV Urbani: 0.6
  Binding of serum SARS-yellow to linear peptides of protein X4 of SARS-CoV Urbani: 0.1
  Binding of serum SARS-yellow to looped/cyclic peptides of protein X4 of SARS-CoV Urbani: 0.5
[2]
  Binding of Control Serum Blood-Bank to Looped peptides: 0.7
  Binding of Control serum Blood-bank to linear peptides: 0.7
  Binding of Control serum LUMC to linear peptides: 0.6
  Binding of Control serum LUMC to looped peptides: 0.7
[3]
  Rabbit serum linear peptides: 0.3
  Rabbit serum looped peptides: 0.2

Reference: patent US20070128217A1 (priority 2003, published 2007)
